The source made the active and inactive calls. The rule behind the calls is not given here. Where a SMILES comes first, the peptide text is derived from it.
Key:
[1] = target: T1, Melanocortin receptor 4 (Homo sapiens, UniProt P32245); assay: Displacement of [125I]-NDP-alpha-MSH from human MC4R expressed in HEK293 cells at 10 uM after 40 mins by gamma counting method; type: cell-based
[2] = target: T2, Melanocortin receptor 5 (Homo sapiens, UniProt P33032); assay: Agonist activity at human MC5R expressed in HEK293 cells assessed as induction of intracellular cAMP accumulation at 10 uM after 3 mins relative to MT-2; type: cell-based; conditions: 0.05 h, read-out: %max
T2 sequence (P33032 whole entry): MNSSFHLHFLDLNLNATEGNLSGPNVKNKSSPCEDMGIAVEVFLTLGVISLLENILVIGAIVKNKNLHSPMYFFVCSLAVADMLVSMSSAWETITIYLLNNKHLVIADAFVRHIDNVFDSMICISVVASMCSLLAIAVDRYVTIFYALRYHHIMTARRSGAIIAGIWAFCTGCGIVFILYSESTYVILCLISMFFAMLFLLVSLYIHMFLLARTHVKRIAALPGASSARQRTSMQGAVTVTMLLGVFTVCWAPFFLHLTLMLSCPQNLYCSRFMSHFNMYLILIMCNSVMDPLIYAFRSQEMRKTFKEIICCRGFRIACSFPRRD

[3] = target: T1, Melanocortin receptor 4; assay: Agonist activity at human MC4R expressed in HEK293 cells assessed as induction of intracellular cAMP accumulation at 10 uM after 3 mins relative to MT-2; type: cell-based; conditions: 0.05 h, read-out: %max
[4] = target: Melanocyte-stimulating hormone receptor (Homo sapiens) (UniProt Q01726); assay: Displacement of [125I]-NDP-alpha-MSH from human MC1R expressed in HEK293 cells at 10 uM after 40 mins by gamma counting method; type: cell-based
Sequence of Melanocyte-stimulating hormone receptor (Homo sapiens) (Q01726 whole entry, looked up): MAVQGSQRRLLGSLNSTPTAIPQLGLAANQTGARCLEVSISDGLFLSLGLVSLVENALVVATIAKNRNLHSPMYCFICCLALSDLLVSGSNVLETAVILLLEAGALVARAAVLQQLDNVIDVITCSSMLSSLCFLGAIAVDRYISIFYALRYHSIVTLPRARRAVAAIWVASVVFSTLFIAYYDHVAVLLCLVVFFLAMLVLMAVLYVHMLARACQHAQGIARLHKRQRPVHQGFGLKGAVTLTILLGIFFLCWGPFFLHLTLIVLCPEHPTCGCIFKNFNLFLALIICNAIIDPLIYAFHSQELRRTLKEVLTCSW

[5] = target: Melanocyte-stimulating hormone receptor (Homo sapiens) (UniProt Q01726); assay: Agonist activity at human MC1R expressed in HEK293 cells assessed as induction of intracellular cAMP accumulation at 10 uM measured after 3 mins relative to MT-2; type: functional, cell-based
[6] = target: T2, Melanocortin receptor 5; assay: Displacement of [125I]-NDP-alpha-MSH from human MC5R expressed in HEK293 cells at 10 uM after 40 mins by gamma counting method; type: cell-based
[7] = test system: Anolis carolinensis; assay: Induction of pigmentation effect in lizard at 2 ug/g, ip at 24 hrs post dose; type: functional, organism-based
[8] = test system: Anolis carolinensis; assay: Induction of pigmentation effect in lizard at 2 ug/g, ip at 1 min post dose; type: functional, organism-based
[9] = target: T3, Melanocortin receptor 3 (Homo sapiens, UniProt P41968); assay: Agonist activity at human MC3R expressed in HEK293 cells assessed as induction of intracellular cAMP accumulation at 10 uM after 3 mins relative to MT-2; type: cell-based; conditions: 0.05 h, read-out: %max
T3 sequence (P41968 whole entry): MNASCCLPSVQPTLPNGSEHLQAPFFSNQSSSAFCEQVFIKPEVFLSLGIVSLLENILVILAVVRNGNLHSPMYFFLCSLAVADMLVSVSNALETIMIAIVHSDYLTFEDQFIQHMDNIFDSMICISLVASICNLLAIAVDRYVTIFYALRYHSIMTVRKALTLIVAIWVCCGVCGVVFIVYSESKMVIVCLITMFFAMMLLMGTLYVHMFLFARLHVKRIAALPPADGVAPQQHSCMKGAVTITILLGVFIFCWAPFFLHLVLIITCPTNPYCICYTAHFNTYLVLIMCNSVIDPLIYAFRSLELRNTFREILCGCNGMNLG

[10] = target: Melanocyte-stimulating hormone receptor (Homo sapiens) (UniProt Q01726); assay: Displacement of [125I]-NDP-alpha-MSH from human MC1R expressed in HEK293 cells after 40 mins by gamma counting method; type: cell-based
[11] = target: T3, Melanocortin receptor 3; assay: Displacement of [125I]-NDP-alpha-MSH from human MC3R expressed in HEK293 cells at 10 uM after 40 mins by gamma counting method; type: cell-based
[12] = target: T2, Melanocortin receptor 5; assay: Agonist activity at human MC5R expressed in HEK293 cells assessed as induction of intracellular cAMP accumulation after 3 mins; type: cell-based; conditions: hek293, 0.05 h

T1 sequence (P32245 whole entry): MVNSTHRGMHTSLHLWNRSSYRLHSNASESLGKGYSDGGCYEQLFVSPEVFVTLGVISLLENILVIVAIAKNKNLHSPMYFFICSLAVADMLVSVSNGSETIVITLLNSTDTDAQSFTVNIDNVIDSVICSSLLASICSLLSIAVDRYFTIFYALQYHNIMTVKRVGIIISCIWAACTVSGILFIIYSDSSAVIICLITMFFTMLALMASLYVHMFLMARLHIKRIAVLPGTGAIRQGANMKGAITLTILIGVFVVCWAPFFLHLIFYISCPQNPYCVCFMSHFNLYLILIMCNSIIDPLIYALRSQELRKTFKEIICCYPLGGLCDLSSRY

SMILES	inhibition at 10 µM [1] [%]	Emax at 10 µM [2] [%]	inhibition [4] [%]	inhibition at 10 µM [6] [%]	other results
CC(C)C[C@H](NC(=O)[C@@H](NC(=O)[C@@H](N)Cc1ccc(O)cc1)C(C)C)C(=O)NCC(=O)N[C@@H](Cc1cnc[nH]1)C(=O)N[C@@H](Cc1ccccc1)C(=O)N[C@@H](CCCNC(=N)N)C(=O)N[C@@H](Cc1c[nH]c2ccccc12)C(=O)N[C@@H](CC(=O)O)C(=O)N[C@@H](CCCNC(=N)N)C(=O)N[C@@H](Cc1ccccc1)C(=O)NCC(N)=O	100	0	–	–	–
CSCC[C@H](NC(=O)[C@@H](NC(=O)[C@@H](N)Cc1ccc(O)cc1)C(C)C)C(=O)NCC(=O)N[C@@H](Cc1cnc[nH]1)C(=O)N[C@@H](Cc1ccccc1)C(=O)N[C@@H](CCCNC(=N)N)C(=O)N[C@@H](Cc1c[nH]c2ccccc12)C(=O)N[C@@H](CC(=O)O)C(=O)N[C@@H](CCCNC(=N)N)C(=O)N[C@@H](Cc1ccccc1)C(=O)NCC(N)=O	100	–	–	–	Emax at 10 µM [3]: 76%
CCCC[C@H](NC(=O)[C@@H](NC(=O)[C@H](Cc1ccc(O)cc1)NC(C)=O)C(C)C)C(=O)NCC(=O)N[C@@H](Cc1cnc[nH]1)C(=O)N[C@H](Cc1ccccc1)C(=O)N[C@@H](CCCNC(=N)N)C(=O)N[C@@H](Cc1c[nH]c2ccccc12)C(=O)N[C@@H](CC(=O)O)C(=O)N[C@@H](CCCNC(=N)N)C(=O)N[C@@H](Cc1ccccc1)C(=O)NCC(N)=O	100	–	–	–	–
CSCC[C@H](NC(=O)[C@H](CO)NC(=O)[C@H](Cc1ccc(O)cc1)NC(=O)[C@H](CO)NC(C)=O)C(=O)N[C@@H](CCC(=O)O)CN[C@@H](Cc1cnc[nH]1)C(=O)N[C@@H](Cc1ccccc1)C(=O)N[C@@H](CCCNC(=N)N)C(=O)N[C@@H](Cc1c[nH]c2ccccc12)C(=O)NCC(=O)N[C@@H](CCCCN)C(=O)N1CCC[C@H]1C(=O)N[C@H](C(N)=O)C(C)C	–	–	100	–	%max [5]: 100%
CC(C)C[C@H](NC(=O)[C@H](Cc1ccccc1)NC(=O)[C@H](Cc1cnc[nH]1)NC(=O)CNC(=O)[C@H](CC(C)C)NC(=O)[C@@H](NC(=O)[C@@H](N)Cc1ccc(O)cc1)C(C)C)C(=O)N[C@@H](Cc1ccccc1)C(=O)N[C@@H](CC(=O)O)C(=O)N[C@@H](CCCNC(=N)N)C(=O)N[C@@H](Cc1ccccc1)C(=O)NCC(N)=O (H-YVLGHFLFDRFG-NH2)	–	–	100	0	Activity [7]: inactive; Activity [8]: Active
CC(C)C[C@H](NC(=O)[C@@H](NC(=O)[C@@H](N)Cc1ccc(O)cc1)C(C)C)C(=O)NCC(=O)N1CCC[C@H]1C(=O)N[C@@H](Cc1ccccc1)C(=O)N[C@@H](CCCNC(=N)N)C(=O)N[C@@H](Cc1ccccc1)C(=O)N[C@@H](CC(=O)O)C(=O)N[C@@H](CCCNC(=N)N)C(=O)N[C@@H](Cc1ccccc1)C(=O)NCC(N)=O (H-YVLGPFRFDRFG-NH2)	0	0	–	–	inhibition [10]: 0%; Emax at 10 µM [9]: 0%
CC(C)C[C@H](NC(=O)[C@@H](NC(=O)[C@@H](N)Cc1ccc(O)cc1)C(C)C)C(=O)NCC(=O)N1CCC[C@H]1C(=O)N[C@@H](Cc1ccccc1)C(=O)N[C@@H](CCCNC(=N)N)C(=O)N[C@@H](Cc1c[nH]c2ccccc12)C(=O)N[C@@H](CC(=O)O)C(=O)N[C@@H](CCCNC(=N)N)C(=O)N[C@@H](Cc1ccccc1)C(=O)NCC(N)=O (H-YVLGPFRWDRFG-NH2)	–	–	–	–	inhibition at 10 µM [11]: 100%
CCCC[C@H](NC(=O)[C@@H](NC(=O)[C@@H](N)Cc1ccc(O)cc1)C(C)C)C(=O)NCC(=O)N[C@@H](Cc1c[nH]cn1)C(=O)N[C@H](Cc1ccc2ccccc2c1)C(=O)N[C@@H](CCCN=C(N)N)C(=O)NC(Cc1c[nH]c2ccccc12)C(=O)N[C@@H](CC(=O)O)C(=O)N[C@@H](CCCN=C(N)N)C(=O)N[C@@H](Cc1ccccc1)C(=O)NCC(N)=O (stereo in doubt)	100	6	100	100	Activity [12]: 0%; inhibition at 10 µM [11]: 100%; %max [5]: 70%; Emax at 10 µM [9]: 6%

Continued, in another order:

inhibition at 10 µM [1] [%]	Emax at 10 µM [2] [%]	inhibition [4] [%]	inhibition at 10 µM [6] [%]	SMILES	other results
–	–	100	0	CC(C)C[C@H](NC(=O)[C@H](Cc1ccccc1)NC(=O)[C@H](Cc1cnc[nH]1)NC(=O)CNC(=O)[C@H](CC(C)C)NC(=O)[C@@H](NC(=O)[C@@H](N)Cc1ccc(O)cc1)C(C)C)C(=O)N[C@@H](Cc1c[nH]c2ccccc12)C(=O)N[C@@H](CC(=O)O)C(=O)N[C@@H](CCCNC(=N)N)C(=O)N[C@@H](Cc1ccccc1)C(=O)NCC(N)=O (H-YVLGHFLWDRFG-NH2)	Emax at 10 µM [9]: 0%
–	0	–	–	CC(C)C[C@H](NC(=O)[C@H](Cc1ccccc1)NC(=O)[C@@H]1CCCN1C(=O)CNC(=O)[C@H](CC(C)C)NC(=O)[C@@H](NC(=O)[C@@H](N)Cc1ccc(O)cc1)C(C)C)C(=O)N[C@@H](Cc1ccccc1)C(=O)N[C@@H](CC(=O)O)C(=O)N[C@@H](CCCNC(=N)N)C(=O)N[C@@H](Cc1ccccc1)C(=O)NCC(N)=O (H-YVLGPFLFDRFG-NH2)	–
–	0	–	32	CC(C)C[C@H](NC(=O)[C@H](Cc1ccccc1)NC(=O)[C@@H]1CCCN1C(=O)CNC(=O)[C@H](CC(C)C)NC(=O)[C@@H](NC(=O)[C@@H](N)Cc1ccc(O)cc1)C(C)C)C(=O)N[C@@H](Cc1c[nH]c2ccccc12)C(=O)N[C@@H](CC(=O)O)C(=O)N[C@@H](CCCNC(=N)N)C(=O)N[C@@H](Cc1ccccc1)C(=O)NCC(N)=O (H-YVLGPFLWDRFG-NH2)	Emax at 10 µM [3]: 0%

Source: ChEMBL document CHEMBL4028888, “Design of MC1R Selective γ-MSH Analogues with Canonical Amino Acids Leads to Potency and Pigmentation” (J Med Chem, 2017)
